Measurements: US20220370416A1, “COMPOUNDS AND METHODS FOR TARGETED DEGRADATION OF KRAS” (Arvinas Operations, Inc., priority 2020, published 2022)

Legend:
HiBit-KRAS^G12C [1] = target: T1, HiBit-KRAS^G12C (Homo sapiens, UniProt P01116, G12C); test: HiBit degradation assay in SW1573 HiBit-KRas^G12C cells; assay type: cell-based; design: expressed in transfected cells; host or cells: SW1573 (clone E6), modified pcDNA3.1 vector, TK promoter; conditions: 24 hours; for Dmax: SW1573, SW1573 HiBit-KRas^G12C; for DC50: SW1573 HiBit-KRas^G12C
T1 sequence (P01116 1-186 isoform P01116-2 G12C limits assumed): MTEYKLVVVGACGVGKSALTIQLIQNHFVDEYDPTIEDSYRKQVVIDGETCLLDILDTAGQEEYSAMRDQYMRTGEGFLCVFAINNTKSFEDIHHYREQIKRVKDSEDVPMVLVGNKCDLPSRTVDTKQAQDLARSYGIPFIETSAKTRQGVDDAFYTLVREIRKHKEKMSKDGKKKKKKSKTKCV
Procedure, shortened: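 SW1573 cells stably expressing N-terminally HiBit-tagged KRAS G12C, under the TK promoter, were treated 24 h at 37 °C with 10 μM to 20 nM compound in 0.1% or 0.5% DMSO. Residual HiBit luminescence normalised to DMSO and fitted with a 4-parameter model for DC50 and Dmax. Points with ≥50% viability loss (alamar blue) excluded.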

HiBit-KRAS^G12C [2] = target: T1, HiBit-KRAS^G12C; test: HiBit degradation assay in MiaPaCa-2 HiBit-KRas^G12C cells; assay type: cell-based; conditions: 24 hours; for Dmax: MIA PaCa-2, MiaPaCa-2 HiBit-KRas^G12C cells, maximum degradation; for DC50: read-out: KRas^G12C-HiBiT (MiaPaCa; 0.5% DMSO) IC50, MiaPaCa-2 HiBit-KRas^G12C cells
Procedure, shortened: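 MiaPaCa-2 cells with CRISPR N-terminal HiBit knock-in on one endogenous KRAS^G12C allele, treated 24 hours at 37° C with compound titrated 10 μM to 20 nM (0.1% or 0.5% DMSO). Lytic HiBit luminescence normalized to DMSO, 4-parameter fit giving DC50 and Dmax; points cytotoxic to […] cells by alamar blue excluded.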

[3] = 0.5% DMSO, read-out: KRas^G12C-HiBiT (SW1573; 0.5% DMSO) Dmax**
[4] = read-out: KRas^G12C-HiBiT (SW1573; 0.5% DMSO) IC50***, 0.5% DMSO
[5] = 0.5% DMSO, read-out: KRas^G12C-HiBiT (MiaPaCa; 0.5% DMSO) DMax
[6] = 0.1% DMSO, read-out: KRas^G12C-HiBit (SW1573; 0.1% DMSO) Dmax**
[7] = 0.1% DMSO, read-out: KRas^G12C-HIBit (SW1573; 0.1% DMSO) DC50*
[8] = 0.1% DMSO, read-out: KRas^G12C-HiBiT (MiaPaCa; 0.1% DMSO) DMax

Row | Structure (SMILES) | Dmax (HiBit-KRAS^G12C [1]; [3]) | DC50 (HiBit-KRAS^G12C [1]; [4]) | Dmax (HiBit-KRAS^G12C [2]; [5]) | DC50 (HiBit-KRAS^G12C [2]; 0.5% DMSO) | Dmax (HiBit-KRAS^G12C [1]; [6]) | DC50 (HiBit-KRAS^G12C [1]; [7]) | Dmax (HiBit-KRAS^G12C [2]; [8])
1 | C=CC(=O)N1CCN(c2nc(OCCN3CCC(COC4(C(=O)N[C@H](C(=O)N5C[C@H](O)C[C@H]5C(=O)N[C@@H](C)c5ccc(-c6scnc6C)cc5)C(C)(C)C)CC4)CC3)nc3c(F)c(-c4cc(O)cc5ccccc45)c(Cl)cc23)C[C@@H]1CC#N [Compound 96, (2S,4R)-1-[(2S)-2-{[1-({1-[2-({6-chloro-4-[(3S)-3-(cyanomethyl)-4-(prop-2-enoyl)piperazin-1-yl]-8-fluoro-7-(3-hydroxynaphthalen-1-yl)quinazolin-2-yl}oxy)ethyl]piperidin-4-yl}methoxy)cyclopropyl] formamido}-3,3-dimethylbutanoyl]-4-hydroxy-N-[(1S)-1-[4-(4-methyl-1,3-thiazol-5-yl)phenyl]ethyl]pyrrolidine-2-carboxamide] | > 70% | < 0.1 µM | > 70% | 0.1 to 1 µM |  |  | 
2 | C=CC(=O)N1CCN(c2nc(O[C@H](C)CN3CCC(COc4cc([C@@H](C(=O)N5C[C@H](O)C[C@H]5C(=O)N[C@@H](C)c5ccc(-c6scnc6C)cc5)C(C)C)on4)CC3)nc3c(F)c(-c4cc(O)cc5ccccc45)c(Cl)cc23)CC1 [Compound 20, (2S,4R)-1-[(2S)-2-[3-({1-[(2R)-2-{[6-chloro-8-fluoro-7-(3-hydroxynaphthalen-1-yl)-4-[4-(prop-2-enoyl)piperazin-1-yl]quinazolin-2-yl]oxy}propyl]piperidin-4-yl}methoxy)-1,2-oxazol-5-yl]-3-methylbutanoyl]-4-hydroxy-N-[(1S)-1-[4-(4-methyl-1,3-thiazol-5-yl)phenyl]ethyl]pyrrolidine-2-carboxamide] | 35 to 70% |  | 35 to 70% |  | 35 to 70% | 0.1 to 1 µM | 35 to 70%
3 | C=CC(=O)N1CCN(c2nc(O[C@H](C)CN3CCC(OCCOCC(=O)N[C@H](C(=O)N4C[C@@H](O)C[C@H]4C(=O)N[C@@H](C)c4ccc(-c5scnc5C)cc4)C(C)(C)C)CC3)nc3c(F)c(-c4cc(O)cc5ccccc45)c(Cl)cc23)CC1 [Compound 82, (2S,4S)-1-[(2S)-2-{2-[2-({1-[(2R)-2-{[6-chloro-8-fluoro-7-(3-hydroxynaphthalen-1-yl)-4-[4-(prop-2-enoyl)piperazin-1-yl]quinazolin-2-yl]oxy}propyl]piperidin-4-yl}oxy)ethoxy]acetamido}-3,3-dimethylbutanoyl]-4-hydroxy-N-[(1S)-1-[4-(4-methyl-1,3-thiazol-5-yl)phenyl]ethyl]pyrrolidine-2-carboxamide] | < 35% |  | 35 to 70% |  | 35 to 70% | > 1 µM | 35 to 70%
4 | C=C(F)C(=O)N1CCN(c2nc(O[C@H](C)CN3CCC(COc4cc([C@H](C(=O)N5C[C@H](O)C[C@H]5C(=O)N[C@@H](C)c5ccc(-c6scnc6C)cc5)C(C)C)on4)CC3)nc3c(F)c(-c4cc(O)cc5ccccc45)c(Cl)cc23)C[C@@H]1CC#N [Compound 155, (2S,4R)-1-[(2R)-2-[3-({1-[(2R)-2-({6-chloro-4-[(3S)-3-(cyanomethyl)-4-(2-fluoroprop-2-enoyl)piperazin-1-yl]-8-fluoro-7-(3-hydroxynaphthalen-1-yl)quinazolin-2-yl}oxy)propyl]piperidin-4-yl}methoxy)-1,2-oxazol-5-yl]-3-methylbutanoyl]-4-hydroxy-N-[(1S)-1-[4-(4-methyl-1,3-thiazol-5-yl)phenyl]ethyl]pyrrolidine-2-carboxamide] | < 35% | 0.1 to 1 µM | < 35% | 0.1 to 1 µM |  |  | 
